Test results published in US20230059136A1, “THE COMPOUNDS AND COMPOSITIONS FOR TREATING CONDITIONS ASSOCIATED WITH NLRP ACTIVITY” (Novartis AG, priority 2018, published 2023).

What follows are compounds tested on IL-1β production in PMA-differentiated THP-1 cells (assay: IL-1β production in PMA-differentiated THP-1 cells stimulated with gramicidin (hTHP-1 assay containing 2% fetal bovine serum)). Conditions: Homo sapiens, THP-1, Table B1; 2% fetal bovine serum; cells printed as numeric bound; read-out: hTHP-1 IC50 (Average IC50 of compounds in hTHP-1 assay).
Type: cell-based, human
Summary of the method: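 IL-1β release was read by HTRF on supernatants of 50,000 PMA-primed (20 ng/ml, 16-18 h) THP-1 cells/well in 2% FBS medium. Cells saw compound for 1 h (11-point titration from 100 μM, 0.37% DMSO) before a 2 h gramicidin (5 μM) challenge.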

Row | Structure (SMILES) | IC50 [µM]
1 | COCc1cc(C(C)C)c(CC(=O)N=S(N)(=O)c2ncc(C(C)(C)O)s2)c(C(C)C)n1 (single isomer, unassigned) [Example 273, (S) or (R)-N-(amino (5-(2-hydroxypropan-2-yl)thiazol-2-yl)(oxo)-λ^6-sulfaneylidene)-2-(2,4-diisopropyl-6-(methoxymethyl)pyridin-3-yl)acetamide] | > 30
2 | CC(C)c1cc(C#CC2CCOCC2)cc(C(C)C)c1CC(=O)N=S(N)(=O)c1cc(C(C)(C)O)n(-c2ccccc2)n1 (single isomer, unassigned) [Example 278, (S) or (R)-N-(amino(5-(2-hydroxypropan-2-yl)-1-phenyl-1H-pyrazol-3-yl)(oxo)-λ^6-sulfaneylidene)-2-(2,6-diisopropyl-4-((tetrahydro-2H-pyran-4-yl)ethynyl)phenyl)acetamide] | > 30
3 | CC(C)c1cc(C#CC2CCCCC2)cc(C(C)C)c1CC(=O)N=S(N)(=O)c1cc(C(C)(C)O)n(-c2ccccc2)n1 (single isomer, unassigned) [Example 280, (S) or (R)-N-(amino (5-(2-hydroxypropan-2-yl)-1-phenyl-1H-pyrazol-3-yl)(oxo)-λ^6-sulfaneylidene)-2-(4-(cyclohexylethynyl)-2,6-diisopropylphenyl) acetamide] | > 30
4 | CC(C)c1cc(CCC2CCCCC2)cc(C(C)C)c1CC(=O)N=S(N)(=O)c1cc(C(C)(C)O)n(-c2ccccc2)n1 (single isomer, unassigned) [Example 282, (S) or (R)-N-(amino(5-(2-hydroxypropan-2-yl)-1-phenyl-1H-pyrazol-3-yl)(oxo)-λ^6-sulfaneylidene)-2-(4-(2-cyclohexylethyl)-2,6-diisopropylphenyl) acetamide] | > 30
5 | CC(C)c1cc(COC2CCCC2)cc(C(C)C)c1CC(=O)N=S(N)(=O)c1cc(C(C)(C)O)n(-c2ccc(F)cc2)n1 (single isomer, unassigned) [Example 284, (S) or (R)-N-(amino(1-(4-fluorophenyl)-5-(2-hydroxypropan-2-yl)-1H-pyrazol-3-yl)(oxo)-λ^6-sulfaneylidene)-2-(4-((cyclopentyloxy)methyl)-2,6-diisopropylphenyl) acetamide] | > 30

Now from value to compound:

Row | IC50 [µM] | Structure (SMILES)
6 | > 30 | CC(C)c1cc(C(=O)CC2CCCCC2)cc(C(C)C)c1CC(=O)N=S(N)(=O)c1cc(C(C)(C)O)n(-c2ccccc2)n1 (single isomer, unassigned) [Example 286, (S) or (R)-N-(amino (5-(2-hydroxypropan-2-yl)-1-phenyl-1H-pyrazol-3-yl)(oxo)-λ^6-sulfaneylidene)-2-(4-(2-cyclohexylacetyl)-2,6-diisopropylphenyl) acetamide]
7 | > 30 | CC(C)c1cc(COC2CCCC2)cc(C(C)C)c1CC(=O)N=S(N)(=O)c1cnc(C(C)(C)O)s1 (single isomer, unassigned) [Example 288, (S) or (R)-N-(amino(2-(2-hydroxypropan-2-yl)thiazol-5-yl)(oxo)-λ^6-sulfaneylidene)-2-(4-((cyclopentyloxy)methyl)-2,6-diisopropylphenyl) acetamide]
8 | > 30 | CCc1c2c(cc(C(C)C)c1CC(=O)N=S(N)(=O)c1cnc(C(C)(C)O)s1)COC2 (single isomer, unassigned) [Example 290, (S) or (R)-N-(amino(2-(2-hydroxypropan-2-yl)thiazol-5-yl)(oxo)-λ^6-sulfaneylidene)-2-(4-ethyl-6-isopropyl-1,3-dihydroisobenzofuran-5-yl)acetamide]
9 | > 30 | CCc1cc2c(c(C(C)C)c1CC(=O)N=S(N)(=O)c1cnc(C(C)(C)O)s1)COC2 (single isomer, unassigned) [Example 292, (S) or (R)-N-(amino(2-(2-hydroxypropan-2-yl)thiazol-5-yl)(oxo)-λ^6-sulfaneylidene)-2-(6-ethyl-4-isopropyl-1,3-dihydroisobenzofuran-5-yl)acetamide]

Same assay, conditions: Homo sapiens, THP-1, Table B1; 2% fetal bovine serum; class symbols; read-out: hTHP-1 IC50 (Average IC50 of compounds in hTHP-1 assay)

Row | Structure (SMILES) | IC50 [µM]
10 | COCc1cc(C(C)C)c(CC(=O)N=S(N)(=O)c2ncc(C(C)(C)O)s2)c(C(C)C)n1 (single isomer, unassigned) [Example 274, (R) or (S)-N-(amino (5-(2-hydroxypropan-2-yl)thiazol-2-yl)(oxo)-λ^6-sulfaneylidene)-2-(2,4-diisopropyl-6-(methoxymethyl)pyridin-3-yl)acetamide] | 1 to 5
11 | CC(C)c1cc(C#CC2CCOCC2)cc(C(C)C)c1CC(=O)N=S(N)(=O)c1cc(C(C)(C)O)n(-c2ccccc2)n1 (single isomer, unassigned) [Example 277, (R) or (S)-N-(amino (5-(2-hydroxypropan-2-yl)-1-phenyl-1H-pyrazol-3-yl)(oxo-λ^6-sulfaneylidene)-2-(2,6-diisopropyl-4-((tetrahydro-2H-pyran-4-yl)ethynyl)phenyl)acetamide] | 0.2 to 1
12 | CC(C)c1cc(C#CC2CCCCC2)cc(C(C)C)c1CC(=O)N=S(N)(=O)c1cc(C(C)(C)O)n(-c2ccccc2)n1 (single isomer, unassigned) [Example 279, (R) or (S)-N-(amino(5-(2-hydroxypropan-2-yl)-1-phenyl-1H-pyrazol-3-yl)(oxo)-λ^6-sulfaneylidene)-2-(4-(cyclohexylethynyl)-2,6-diisopropylphenyl) acetamide] | 1 to 5
13 | CC(C)c1cc(CCC2CCCCC2)cc(C(C)C)c1CC(=O)N=S(N)(=O)c1cc(C(C)(C)O)n(-c2ccccc2)n1 (single isomer, unassigned) [Example 281, (R) or (S)-N-(amino(5-(2-hydroxypropan-2-yl)-1-phenyl-1H-pyrazol-3-yl)(oxo)-λ^6-sulfaneylidene)-2-(4-(2-cyclohexylethyl)-2,6-diisopropylphenyl) acetamide] | 5 to 30
14 | CC(C)c1cc(COC2CCCC2)cc(C(C)C)c1CC(=O)N=S(N)(=O)c1cc(C(C)(C)O)n(-c2ccc(F)cc2)n1 (single isomer, unassigned) [Example 283, (R) or (S)-N-(amino(1-(4-fluorophenyl)-5-(2-hydroxypropan-2-yl)-1H-pyrazol-3-yl)(oxo)-λ^6-sulfaneylidene)-2-(4-((cyclopentyloxy)methyl)-2,6-diisopropylphenyl) acetamide] | 0.2 to 1

Next, values leading:

Row | IC50 [µM] | Structure (SMILES)
15 | 1 to 5 | CC(C)c1cc(C(=O)CC2CCCCC2)cc(C(C)C)c1CC(=O)N=S(N)(=O)c1cc(C(C)(C)O)n(-c2ccccc2)n1 (single isomer, unassigned) [Example 285, (R) or (S)-N-(amino(5-(2-hydroxypropan-2-yl)-1-phenyl-1H-pyrazol-3-yl)(oxo)-λ^6-sulfaneylidene)-2-(4-(2-cyclohexylacetyl)-2,6-diisopropylphenyl) acetamide]
16 | 0.04 to 0.2 | CC(C)c1cc(COC2CCCC2)cc(C(C)C)c1CC(=O)N=S(N)(=O)c1cnc(C(C)(C)O)s1 (single isomer, unassigned) [Example 287, (R) or (S)-N-(amino(2-(2-hydroxypropan-2-yl)thiazol-5-yl)(oxo)-λ^6-sulfaneylidene)-2-(4-((cyclopentyloxy)methyl)-2,6-diisopropylphenyl) acetamide]
17 | 5 to 30 | CCc1c2c(cc(C(C)C)c1CC(=O)N=S(N)(=O)c1cnc(C(C)(C)O)s1)COC2 (single isomer, unassigned) [Example 289, (R) or (S)-N-(amino(2-(2-hydroxypropan-2-yl)thiazol-5-yl)(oxo)-λ^6-sulfaneylidene)-2-(4-ethyl-6-isopropyl-1,3-dihydroisobenzofuran-5-yl)acetamide]
18 | 5 to 30 | CCc1cc2c(c(C(C)C)c1CC(=O)N=S(N)(=O)c1cnc(C(C)(C)O)s1)COC2 (single isomer, unassigned) [Example 291, (R) or (S)-N-(amino(2-(2-hydroxypropan-2-yl)thiazol-5-yl)(oxo)-λ^6-sulfaneylidene)-2-(6-ethyl-4-isopropyl-1,3-dihydroisobenzofuran-5-yl)acetamide]

Same assay, conditions: Table B1; 2% fetal bovine serum; class symbols; read-out: hTHP-1 IC50 (Average IC50 of compounds in hTHP-1 assay)

Row | Structure (SMILES) | IC50 [µM]
19 | CC(C)c1cc(-c2ccc3c(c2)CCOC3)cc(C(C)C)c1CC(=O)N=S(N)(=O)c1sc(C(C)(C)O)nc1CO (single isomer, unassigned) [Example 272, (S) or (R)-N-(amino(4-(hydroxymethyl)-2-(2-hydroxypropan-2-yl)thiazol-5-yl)(oxo)-λ^6-sulfaneylidene)-2-(4-(isochroman-6-yl)-2,6-diisopropylphenyl) acetamide] | 5 to 30
20 | CC(C)c1cc(C#N)c(F)c(C(C)C)c1CC(=O)N=S(N)(=O)c1cc(C(C)(C)O)n(-c2ccccc2)n1 (single isomer, unassigned) [Example 275, (R) or (S)-N-(amino (5-(2-hydroxypropan-2-yl)-1-phenyl-1H-pyrazol-3-yl)(oxo)-λ^6-sulfaneylidene)-2-(4-cyano-3-fluoro-2,6-diisopropylphenyl) acetamide] | 0.2 to 1
21 | CC(C)c1cc(C#N)c(F)c(C(C)C)c1CC(=O)N=S(N)(=O)c1cc(C(C)(C)O)n(-c2ccccc2)n1 (single isomer, unassigned) [Example 276, (S) or (R)-N-(amino (5-(2-hydroxypropan-2-yl)-1-phenyl-1H-pyrazol-3-yl)(oxo)-λ^6-sulfaneylidene)-2-(4-cyano-3-fluoro-2,6-diisopropylphenyl) acetamide] | 5 to 30

Other lines, results leading:

Row | IC50 [µM] | Structure (SMILES)
22 | 0.2 to 1 | CCc1c2c(cc(C(C)C)c1CC(=O)N=S(N)(=O)c1cc(C(C)(C)O)cs1)COC2 (single isomer, unassigned) [Example 293, (R) or (S)-N-(amino(4-(2-hydroxypropan-2-yl)thiophen-2-yl)(oxo)-λ^6-sulfaneylidene)-2-(4-ethyl-6-isopropyl-1,3-dihydroisobenzofuran-5-yl)acetamide]
23 | 5 to 30 | CCc1c2c(cc(C(C)C)c1CC(=O)N=S(N)(=O)c1cc(C(C)(C)O)cs1)COC2 (single isomer, unassigned) [Example 294, (S) or (R)-N-(amino(4-(2-hydroxypropan-2-yl)thiophen-2-yl)(oxo)-λ^6-sulfaneylidene)-2-(4-ethyl-6-isopropyl-1,3-dihydroisobenzofuran-5-yl)acetamide]
